Test results: ChEMBL document CHEMBL5291721, “A preclinical secondary pharmacology resource illuminates target-adverse drug reaction associations of marketed drugs” (Nat Commun, 2023)

What was measured:
Adenosine receptor A1 = target: T1, Adenosine receptor A1 (Homo sapiens, UniProt P30542)
T1 sequence (P30542 whole entry): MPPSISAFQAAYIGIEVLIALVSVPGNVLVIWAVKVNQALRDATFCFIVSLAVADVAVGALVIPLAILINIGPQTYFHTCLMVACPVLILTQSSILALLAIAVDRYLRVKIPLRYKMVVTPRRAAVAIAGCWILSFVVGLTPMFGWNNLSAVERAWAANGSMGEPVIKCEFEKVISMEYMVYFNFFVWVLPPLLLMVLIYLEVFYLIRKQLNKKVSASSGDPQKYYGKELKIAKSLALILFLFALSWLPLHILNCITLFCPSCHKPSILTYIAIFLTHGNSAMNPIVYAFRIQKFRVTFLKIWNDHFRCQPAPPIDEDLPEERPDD

[1] = target: T2, Alpha-2C adrenergic receptor (Homo sapiens, UniProt P18825); format: functional
T2 sequence (P18825 whole entry): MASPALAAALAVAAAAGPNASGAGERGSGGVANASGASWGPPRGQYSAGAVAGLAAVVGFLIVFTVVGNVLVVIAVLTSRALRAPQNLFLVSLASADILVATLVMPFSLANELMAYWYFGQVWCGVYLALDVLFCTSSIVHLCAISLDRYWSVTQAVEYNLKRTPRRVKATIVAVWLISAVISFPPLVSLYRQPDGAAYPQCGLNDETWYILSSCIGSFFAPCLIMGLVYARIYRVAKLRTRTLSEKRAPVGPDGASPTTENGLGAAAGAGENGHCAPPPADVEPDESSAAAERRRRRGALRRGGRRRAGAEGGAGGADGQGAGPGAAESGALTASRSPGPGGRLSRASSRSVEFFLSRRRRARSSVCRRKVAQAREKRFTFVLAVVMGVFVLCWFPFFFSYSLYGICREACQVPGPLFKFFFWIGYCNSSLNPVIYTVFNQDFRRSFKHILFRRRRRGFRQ

Vasopressin V1a receptor = Vasopressin V1a receptor (Homo sapiens, UniProt P37288)
Chain of Vasopressin V1a receptor (P37288 whole entry): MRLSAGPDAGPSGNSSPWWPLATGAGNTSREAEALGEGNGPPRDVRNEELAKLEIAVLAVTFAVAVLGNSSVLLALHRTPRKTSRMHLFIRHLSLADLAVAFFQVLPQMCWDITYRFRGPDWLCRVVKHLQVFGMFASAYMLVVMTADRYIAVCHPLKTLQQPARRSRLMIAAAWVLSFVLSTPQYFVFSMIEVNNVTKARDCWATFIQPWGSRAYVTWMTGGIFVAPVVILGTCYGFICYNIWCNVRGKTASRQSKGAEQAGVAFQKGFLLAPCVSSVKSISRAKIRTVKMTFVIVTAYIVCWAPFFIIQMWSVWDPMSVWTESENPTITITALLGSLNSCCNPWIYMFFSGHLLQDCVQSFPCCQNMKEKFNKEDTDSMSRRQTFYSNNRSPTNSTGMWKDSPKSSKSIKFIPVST

[2] = target: T3, Cholecystokinin receptor type A (Homo sapiens, UniProt P32238)
T3 sequence (P32238 whole entry): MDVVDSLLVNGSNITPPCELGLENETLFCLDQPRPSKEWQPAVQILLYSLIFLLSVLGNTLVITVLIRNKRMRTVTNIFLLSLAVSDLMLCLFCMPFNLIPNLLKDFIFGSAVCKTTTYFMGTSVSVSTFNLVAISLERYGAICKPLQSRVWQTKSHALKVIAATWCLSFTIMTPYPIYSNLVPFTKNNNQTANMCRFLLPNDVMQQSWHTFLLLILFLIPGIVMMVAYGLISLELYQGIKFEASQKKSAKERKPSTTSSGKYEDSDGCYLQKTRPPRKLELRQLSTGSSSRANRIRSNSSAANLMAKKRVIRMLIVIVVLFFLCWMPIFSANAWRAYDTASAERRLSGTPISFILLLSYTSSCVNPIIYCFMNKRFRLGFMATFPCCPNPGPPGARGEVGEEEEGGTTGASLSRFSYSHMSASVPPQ

[3] = target: T4, Muscarinic acetylcholine receptor M1 (Homo sapiens, UniProt P11229); format: functional
T4 sequence (P11229 whole entry): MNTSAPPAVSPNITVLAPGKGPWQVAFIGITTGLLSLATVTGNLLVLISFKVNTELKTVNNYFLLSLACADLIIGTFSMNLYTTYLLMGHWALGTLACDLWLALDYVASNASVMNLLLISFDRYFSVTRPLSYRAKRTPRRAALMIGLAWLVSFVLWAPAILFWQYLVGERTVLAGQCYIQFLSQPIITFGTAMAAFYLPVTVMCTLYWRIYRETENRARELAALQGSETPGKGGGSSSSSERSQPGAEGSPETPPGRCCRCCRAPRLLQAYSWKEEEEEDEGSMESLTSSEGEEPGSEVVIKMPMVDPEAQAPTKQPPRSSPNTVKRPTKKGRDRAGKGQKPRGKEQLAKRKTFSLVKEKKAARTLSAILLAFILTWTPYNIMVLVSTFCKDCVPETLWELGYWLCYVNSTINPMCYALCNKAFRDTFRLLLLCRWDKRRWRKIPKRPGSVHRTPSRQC

[4] = target: Neuronal acetylcholine receptor subunit alpha-4 (Homo sapiens, UniProt P43681)
Chain of Neuronal acetylcholine receptor subunit alpha-4 (P43681 whole entry): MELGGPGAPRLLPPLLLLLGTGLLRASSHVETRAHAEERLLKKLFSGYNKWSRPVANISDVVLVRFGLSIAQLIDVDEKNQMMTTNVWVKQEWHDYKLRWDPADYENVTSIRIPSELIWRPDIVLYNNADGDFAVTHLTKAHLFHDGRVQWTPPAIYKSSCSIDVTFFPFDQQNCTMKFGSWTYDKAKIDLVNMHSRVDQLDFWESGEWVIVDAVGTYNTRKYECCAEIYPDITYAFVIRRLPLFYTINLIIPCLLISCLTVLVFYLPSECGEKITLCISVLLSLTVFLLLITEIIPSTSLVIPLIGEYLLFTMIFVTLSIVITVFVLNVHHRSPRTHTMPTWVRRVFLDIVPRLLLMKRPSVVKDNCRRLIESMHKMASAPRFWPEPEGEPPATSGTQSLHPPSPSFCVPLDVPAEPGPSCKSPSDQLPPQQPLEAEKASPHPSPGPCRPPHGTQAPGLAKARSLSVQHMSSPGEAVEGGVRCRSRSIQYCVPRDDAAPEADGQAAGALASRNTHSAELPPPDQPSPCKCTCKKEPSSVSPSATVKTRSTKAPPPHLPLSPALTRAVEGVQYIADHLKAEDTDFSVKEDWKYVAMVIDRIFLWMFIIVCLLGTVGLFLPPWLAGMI

[5] = target: T5, 5-hydroxytryptamine receptor 1A (Homo sapiens, UniProt P08908); format: functional, cell-based
T5 sequence (P08908 whole entry): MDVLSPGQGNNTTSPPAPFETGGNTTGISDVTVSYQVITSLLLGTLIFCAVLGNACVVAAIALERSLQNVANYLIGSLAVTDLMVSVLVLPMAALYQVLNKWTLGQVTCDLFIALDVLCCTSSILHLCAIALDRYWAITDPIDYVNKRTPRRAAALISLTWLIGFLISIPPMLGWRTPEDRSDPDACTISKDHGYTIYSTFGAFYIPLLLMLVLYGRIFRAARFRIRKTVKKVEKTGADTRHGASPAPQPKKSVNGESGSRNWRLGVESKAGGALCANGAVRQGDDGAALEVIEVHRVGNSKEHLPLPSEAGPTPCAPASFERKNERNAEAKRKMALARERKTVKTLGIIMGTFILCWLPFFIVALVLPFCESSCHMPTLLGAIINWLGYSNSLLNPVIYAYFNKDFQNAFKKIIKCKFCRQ

[6] = target: T6, Neuropeptide Y receptor type 1 (Homo sapiens, UniProt P25929)
T6 sequence (P25929 whole entry): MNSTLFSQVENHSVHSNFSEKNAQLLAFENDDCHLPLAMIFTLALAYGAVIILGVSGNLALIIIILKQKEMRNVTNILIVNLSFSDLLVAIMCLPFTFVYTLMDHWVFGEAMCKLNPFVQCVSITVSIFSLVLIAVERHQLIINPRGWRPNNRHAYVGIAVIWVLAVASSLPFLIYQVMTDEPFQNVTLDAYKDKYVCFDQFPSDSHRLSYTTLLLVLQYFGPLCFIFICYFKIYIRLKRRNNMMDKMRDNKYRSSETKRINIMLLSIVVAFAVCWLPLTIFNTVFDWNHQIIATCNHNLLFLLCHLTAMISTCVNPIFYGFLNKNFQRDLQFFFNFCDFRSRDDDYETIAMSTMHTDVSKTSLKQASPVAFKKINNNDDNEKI

[7] = target: Voltage-gated inwardly rectifying potassium channel KCNH2 (Homo sapiens, UniProt Q12809); format: functional; settings: read-out: AC50
Chain of Voltage-gated inwardly rectifying potassium channel KCNH2 (Q12809 whole entry): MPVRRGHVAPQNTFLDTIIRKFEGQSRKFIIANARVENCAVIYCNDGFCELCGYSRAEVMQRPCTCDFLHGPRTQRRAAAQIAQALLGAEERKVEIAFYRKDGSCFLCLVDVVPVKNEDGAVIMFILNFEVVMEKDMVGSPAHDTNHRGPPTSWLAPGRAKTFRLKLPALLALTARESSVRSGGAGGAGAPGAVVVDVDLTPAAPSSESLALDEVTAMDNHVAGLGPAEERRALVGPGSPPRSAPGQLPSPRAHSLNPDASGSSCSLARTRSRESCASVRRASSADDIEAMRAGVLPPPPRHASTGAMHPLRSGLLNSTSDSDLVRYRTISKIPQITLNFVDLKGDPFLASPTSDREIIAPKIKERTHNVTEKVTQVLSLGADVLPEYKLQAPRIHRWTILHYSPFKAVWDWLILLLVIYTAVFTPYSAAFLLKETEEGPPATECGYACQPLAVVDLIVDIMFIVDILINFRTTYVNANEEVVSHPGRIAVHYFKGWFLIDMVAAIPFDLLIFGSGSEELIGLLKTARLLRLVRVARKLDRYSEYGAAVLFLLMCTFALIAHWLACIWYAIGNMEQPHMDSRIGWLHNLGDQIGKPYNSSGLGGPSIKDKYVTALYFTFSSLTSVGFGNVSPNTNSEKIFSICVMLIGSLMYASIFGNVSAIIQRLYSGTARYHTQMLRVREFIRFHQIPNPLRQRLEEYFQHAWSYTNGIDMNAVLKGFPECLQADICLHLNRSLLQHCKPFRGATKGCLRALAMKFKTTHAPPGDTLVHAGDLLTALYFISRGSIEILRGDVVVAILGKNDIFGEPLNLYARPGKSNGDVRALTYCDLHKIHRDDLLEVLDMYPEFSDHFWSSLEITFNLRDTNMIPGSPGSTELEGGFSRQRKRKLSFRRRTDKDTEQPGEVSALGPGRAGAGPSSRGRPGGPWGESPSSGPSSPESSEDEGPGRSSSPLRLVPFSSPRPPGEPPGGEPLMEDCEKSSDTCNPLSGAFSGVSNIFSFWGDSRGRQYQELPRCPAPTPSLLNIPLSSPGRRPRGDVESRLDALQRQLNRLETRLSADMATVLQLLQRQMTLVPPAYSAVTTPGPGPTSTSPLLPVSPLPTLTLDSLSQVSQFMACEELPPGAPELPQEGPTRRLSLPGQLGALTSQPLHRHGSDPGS

Acetylcholinesterase = Acetylcholinesterase (Homo sapiens, UniProt P22303); format: functional
Chain of Acetylcholinesterase (P22303 whole entry): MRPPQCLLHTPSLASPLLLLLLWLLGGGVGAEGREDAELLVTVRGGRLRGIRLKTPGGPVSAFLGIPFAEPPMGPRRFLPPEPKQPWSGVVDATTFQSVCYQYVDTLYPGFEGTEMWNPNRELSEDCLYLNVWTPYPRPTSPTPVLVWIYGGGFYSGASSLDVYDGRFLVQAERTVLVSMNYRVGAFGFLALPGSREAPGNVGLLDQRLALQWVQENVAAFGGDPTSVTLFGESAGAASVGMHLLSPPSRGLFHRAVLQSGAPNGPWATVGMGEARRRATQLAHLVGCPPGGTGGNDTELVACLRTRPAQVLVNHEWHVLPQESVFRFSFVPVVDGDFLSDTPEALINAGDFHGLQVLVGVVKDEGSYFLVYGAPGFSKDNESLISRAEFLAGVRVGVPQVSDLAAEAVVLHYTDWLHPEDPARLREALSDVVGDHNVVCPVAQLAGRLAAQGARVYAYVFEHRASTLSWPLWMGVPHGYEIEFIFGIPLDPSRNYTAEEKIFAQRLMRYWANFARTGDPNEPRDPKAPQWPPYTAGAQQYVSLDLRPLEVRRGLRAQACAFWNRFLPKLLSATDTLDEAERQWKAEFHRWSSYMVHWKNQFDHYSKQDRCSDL

[8] = target: T4, Muscarinic acetylcholine receptor M1; format: functional, cell-based
Prothrombin = Prothrombin (Homo sapiens, UniProt P00734); format: functional
Also: assay procedure not described here.

Row | SMILES | AC50 (Adenosine receptor A1) | AC50 [1] | AC50 (Vasopressin V1a receptor) | AC50 [2] | AC50 [3] | AC50 [4] | AC50 [5] | AC50 [6] | AC50 [7] | AC50 (Acetylcholinesterase) | AC50 [8] | AC50 (Prothrombin)
1 | COc1ccccc1OCC(O)CN1CCN(CC(=O)Nc2c(C)cccc2C)CC1 (stereo not drawn) [RANOLAZINE] | > 30 µM | 1.4 µM | > 30 µM | > 30 µM | > 30 µM | > 30 µM | > 30 µM | > 30 µM |  |  |  | 
2 | Nc1nc(NC2CC2)c2ncn([C@H]3C=C[C@@H](CO)C3)c2n1 [ABACAVIR] | > 30 µM | > 30 µM | > 30 µM | > 30 µM | > 30 µM | > 30 µM | > 30 µM | > 30 µM | > 30 µM |  |  | 
3 | O=C1Nc2ccc(Cl)cc2[C@@](C#CC2CC2)(C(F)(F)F)O1 [EFAVIRENZ] | > 30 µM | > 30 µM | > 30 µM | > 30 µM | > 30 µM | > 30 µM | > 10 µM | > 30 µM | > 30 µM |  |  | 
4 | NS(=O)(=O)Cc1noc2ccccc12 [ZONISAMIDE] | > 10 µM | > 10 µM | > 10 µM | > 10 µM | > 10 µM | > 10 µM | > 10 µM | > 10 µM | > 30 µM |  |  | 
5 | CN1C(C(=O)Nc2ccccn2)=C(O)c2sc(Cl)cc2S1(=O)=O [LORNOXICAM] | > 30 µM | > 10 µM | > 30 µM | > 30 µM | > 10 µM | > 10 µM | > 10 µM | > 30 µM | > 30 µM |  |  | 
6 | O=C(O[C@H]1C[C@H]2CC[C@@H](C1)[N+]21CCCC1)C(O)(c1ccccc1)c1ccccc1 [TROSPIUM] | > 30 µM | > 30 µM | > 30 µM | > 30 µM | 0.028 µM | > 30 µM | > 30 µM | > 30 µM | 0.63 µM |  |  | 
7 | Cc1c(C(=O)NN2CCCCC2)nn(-c2ccc(Cl)cc2Cl)c1-c1ccc(Cl)cc1 [RIMONABANT] | > 30 µM | 13 µM | 30 µM | 17 µM | > 30 µM | > 10 µM | > 30 µM | > 30 µM | > 30 µM |  |  | 
8 | Cn1nnc2c(C(N)=O)ncn2c1=O [TEMOZOLOMIDE] | > 30 µM | > 30 µM | > 30 µM | > 30 µM | > 30 µM | > 30 µM | > 30 µM | > 30 µM | > 30 µM |  |  | 
9 | CN(C)CCC=C1c2ccccc2C(C)(C)c2ccccc21 | > 30 µM | 9.67 µM | > 30 µM | > 30 µM | 0.129 µM | > 1 µM | 26 µM |  | 4.13 µM |  |  | 
10 | COc1ccc(CC(C)(C)NC[C@H](O)c2cc(O)cc3c2OCC(=O)N3)cc1 [OLODATEROL] | > 30 µM | > 30 µM | > 30 µM | > 30 µM | > 30 µM | > 30 µM | > 30 µM |  | 6.3 µM |  |  | 
11 | CCC(=O)NCC[C@@H]1CCc2ccc3c(c21)CCO3 [RAMELTEON] |  |  |  |  |  |  |  |  |  | > 30 µM | > 30 µM | > 30 µM
12 | C=C[C@H]1C[N@@]2CC[C@H]1C[C@H]2[C@H](O)c1ccnc2ccc(OC)cc12 [QUININE] |  |  |  |  |  |  |  |  |  | > 30 µM | > 30 µM | > 30 µM
13 | CNC1Cc2ccccc2N(C)c2ccccc21 (stereo not drawn) [METAPRAMINE] | > 30 µM | 26 µM | > 30 µM | > 30 µM | > 30 µM | > 30 µM | > 10 µM |  | 5.9 µM |  |  | 
14 | CN1C(=O)CCS(=O)(=O)C1c1ccc(Cl)cc1 (stereo not drawn) [CHLORMEZANONE] | > 10 µM | > 30 µM | > 10 µM | > 10 µM | > 30 µM | > 10 µM | > 10 µM | > 10 µM | > 30 µM |  |  | 
15 | Nc1ccn([C@H]2CC[C@@H](CO)O2)c(=O)n1 [ZALCITABINE] | > 10 µM | > 10 µM | > 10 µM | > 10 µM | > 10 µM | > 10 µM | > 10 µM | > 10 µM | > 30 µM |  |  | 
16 | CCCCN1C[C@H](O)[C@@H](O)[C@H](O)[C@H]1CO | > 30 µM | > 30 µM | > 30 µM | > 30 µM | > 30 µM | > 30 µM | > 30 µM | > 30 µM | > 30 µM |  |  | 
17 | CC(=O)NCCCS(=O)(=O)O [ACAMPROSATE] | > 30 µM | > 30 µM | > 30 µM | > 30 µM | > 30 µM | > 30 µM | > 30 µM | > 30 µM | > 30 µM |  |  | 
18 | Cc1nc([N+](=O)[O-])cn1-c1ccc([N+](=O)[O-])cc1 [NITREFAZOLE] | > 30 µM | > 30 µM | > 30 µM | > 30 µM | > 30 µM | > 30 µM | > 30 µM | > 30 µM | > 30 µM |  |  | 
19 | COc1cc2nc(N(C)CCCNC(=O)C3CCCO3)nc(N)c2cc1OC (stereo not drawn) [ALFUZOSIN] | > 30 µM | 0.81 µM | > 30 µM | > 30 µM | > 30 µM | > 30 µM | > 30 µM | > 30 µM |  |  |  | 
20 | Clc1ccc2nsnc2c1NC1=NCCN1 [TIZANIDINE] | > 30 µM | 1.31 µM | > 10 µM | > 30 µM | > 10 µM | > 10 µM | > 30 µM | > 30 µM | > 30 µM |  |  | 
